The values that follow come from patent publication US8053461B2, “Oxindole derivative” (Theravalues Corporation, priority 2006, dated 2011).

In series [1] the target is T1, recombinant GST-Pim-1 kinase (Homo sapiens, UniProt P11309).
T1 construct: GST
Kind of series: In vitro system for measurement of Pim-1 kinase activity (phosphorylation of biotinylated p21 peptide, OD450). In kind it is biochemical. The following applies: ATP 10 μM, 25° C., 30 minutes; read-out: 50% inhibitory concentration (IC50) of Pim-1 kinase activity. The procedure: The sensitivity (IC50: inhibitory concentration of 50% of activity) and concentration dependence of these novel compounds to inhibition of Pim-1 activity were studied (using the following system).
In Vitro System for Measurement of Pim-1 Kinase Activity:
(1) Add a biotinylated p21 peptide (1 mM) as a substrate to be phosphorylated by Pim-1 and a recombinant GST-Pim-1 kinase (18 μg/ml) to a kinase buffer.
(2) Add a test compound (dissolved in 2% DMSO) or 2% DMSO (a solvent control) thereto.
(3) Add ATP (10 μM) thereto and incubate the mixture at 25° C. for 30 minutes (initiate a kinase reaction).
(4) Add EDTA (10 mM) thereto to stop the reaction.
(5) Add 10 μl of the kinase reaction mixture to a 96-well plate (which has been blocked in advance) coated with avidin, and incubate the plate at room temperature for 60 minutes.
(6) Wash the wells with a washing buffer three times.
(7) Add a diluted solution (1:500) of an antibody which recognizes phosphorylated p21 (Thr145) to the wells in an amount of 100 μl per well and incubate the plate for 90 minutes.
(8) Wash the wells with a washing buffer three times.
(9) Add a diluted solution (1:2000) of a secondary antibody which […] to the wells in an amount of 100 μl per well and incubate the plate for 60 minutes.
(10) Wash the wells with a washing buffer five times.
(11) Add a substrate (TMB) for peroxidase to the wells and incubate the plate for 8 minutes. Then, stop the reaction with 2 M H2SO4 and perform the colorimetric determination using a microplate reader (OD450).

In series [2] the test system is esophageal squamous cell carcinoma cell line (T.Tn). Briefly: Cytotoxicity, MTS method. The series is classed as cell-based. On the procedure: (§1) Various cancer cell lines were seeded in 96-well plates at a density of 3 to 5000 cells per well, and on the following day, any of the novel compounds was added thereto such that the final concentrations of the compounds were 0 to 100 μM (the concentration of the solvent DMSO was 0.5%) and the plates were incubated for 24 to 72 hours. The cytotoxicity to cancer cells can be examined by calculating the viable cell count by the MTS method (CellTiter 96 Aqueous One Solution Cell Proliferation Assay, Promega) after incubation. Here, the MTS method is a viable cell count calculation method using the fact that a tetrazolium compound (MTS) is converted into a chromogenic formazan product by an oxidoreductase of viable cells. In the measurement method, to each well of a 96-well plate containing 100 μl of a culture medium and sample cells, 20 μl of CellTiter 96 Aqueous One Solution Reagent is added and the plate was incubated in an incubator at 37° C. for 90 to 120 minutes, and then, the absorbance at 490 nm is measured using a 96-well plate reader.

In series [3] the test system is lung cancer cell line (A549). Kind of series: Cytotoxicity, MTS method. The series is classed as cell-based. On the procedure: as §1
On the technique in general: Tetrazolium assays rely on reduction of a dye to a coloured formazan, in cell work by metabolically active cells.

The test system of series [4] is normal renal cell line (293). Briefly: Cytotoxicity, MTS method. In kind it is cell-based. The note with it: at 100 μM and 10 μM, even at 1 μM to some cell lines, FIG. 2. The procedure:
as §1

Series [5] concerns oral squamous cell carcinoma cell line (HSC-3). Briefly: Cytotoxicity, MTS method. The series is classed as cell-based. The following applies: at 100 μM and 10 μM, even at 1 μM to some cell lines, FIG. 2. The procedure: as §1
For series [6], the system named is pancreatic cancer cell line (MiaPaCa-2). Briefly: Cytotoxicity, MTS method. The series is classed as cell-based. The note with it: at 100 μM and 10 μM, even at 1 μM to some cell lines, FIG. 2. The procedure: as §1
For series [7], the system named is uterine cancer cell line (HeLa). Briefly: Cytotoxicity, MTS method. In kind it is cell-based. The note with it: at 100 μM and 10 μM, even at 1 μM to some cell lines, FIG. 2. On the procedure:
as §1

The subject of series [8] is prostate cancer cell line (PC-3). Kind of series: Cytotoxicity, MTS method, time course. The series is classed as cell-based. The note with it: time course observation of viable cell count, FIG. 3. The procedure: as §1
Series [9] deals with pancreatic cancer cell line (BxPC-3). Kind of series: Cytotoxicity, MTS method, time course. The series is classed as cell-based. The following applies: FIG. 4. On the procedure: as §1

Structures can show the parent of a compound that is named as a salt.

T1 sequence (P11309 whole entry): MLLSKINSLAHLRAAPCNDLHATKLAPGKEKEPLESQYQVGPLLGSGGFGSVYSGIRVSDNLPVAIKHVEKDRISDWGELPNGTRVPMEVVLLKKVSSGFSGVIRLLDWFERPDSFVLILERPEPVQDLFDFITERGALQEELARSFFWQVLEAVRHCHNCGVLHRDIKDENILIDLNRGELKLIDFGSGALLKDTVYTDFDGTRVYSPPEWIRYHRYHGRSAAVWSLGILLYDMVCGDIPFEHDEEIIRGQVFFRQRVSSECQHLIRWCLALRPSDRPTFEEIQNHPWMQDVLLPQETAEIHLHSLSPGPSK

With `O=C1Nc2ccccc2/C1=C\c1ccc(/C=C2/C(=O)Nc3ccccc32)o1` [compound (1), (3E)-3[(5-((E)-(2-oxoindolin-3-ylidene)methyl)furan-2-yl)methylene]indoline-2-one], in series [1], the IC50 is 50 nM. The cytotoxicity result is recorded as “remarkable cytotoxicity” in [2] (T.Tn, at 100 μM and 10 μM, even at 1 μM to some cell lines, FIG. 2); “remarkable cytotoxicity” in [3] (A549, at 100 μM and 10 μM, even at 1 μM to some cell lines, FIG. 2); “remarkable cytotoxicity” in series [4]; “remarkable cytotoxicity” in series [5]; “remarkable cytotoxicity” in series [6]; “remarkable cytotoxicity” in series [7]. Also, the cell lethal effect entry in [8] was “has a cell lethal effect”.

In the case of `CC(=O)N1C(=O)/C(=C/c2ccc(/C=C3/C(=O)N(C(C)=O)c4ccccc43)o2)c2ccccc21` [compound (2), (3E)-1-acetyl-3-[((5E)-((1-acetyl-2-oxoindolin-3-ylidene)methyl)furan-2-yl)methylene]indolin-2-one], the IC50 in series [1] is 10 nM. Moreover, the “cell proliferation inhibitory effect and cell lethal effect” value in series [2] (esophageal squamous cell carcinoma cell line (T.Tn), time course, FIG. 4) is “has a cell proliferation inhibitory effect and a cell lethal effect”; in series [3] (lung cancer cell line (A549), time course, FIG. 4), “has a cell proliferation inhibitory effect and a cell lethal effect”; in [9], “has a cell proliferation inhibitory effect and a cell lethal effect”.

With `CC(=O)N1C(=O)/C(=C/c2ccc(/C=C3/C(=O)Nc4ccccc43)o2)c2ccccc21` [compound (3), (3E)-3-((5-((E)-(1-acetyl-2-oxoindolin-3-ylidene)methyl)furan-2-yl)methylene)indolin-2-one], the IC50 in series [1] came to 800 nM.

For `CCCC(=O)N1C(=O)/C(=C/c2ccc(/C=C3/C(=O)N(C(=O)CCC)c4ccccc43)o2)c2ccccc21` [compound (7), (3E)-1-butyryl-3-[((5E)-((1-butyryl-2-oxoindolin-3-ylidene)methyl)furan-2-yl)methylene]indolin-2-one], in series [1], the IC50 was determined as 26 nM.

As to `CC(=O)N1C(=O)/C(=C/c2ccc(/C=C3/C(=O)Nc4ccc(C(=O)O)cc43)o2)c2ccccc21` [compound (9), (3E)-3-((5-((E)-(1-acetyl-2-oxoindolin-3-ylidene)methyl)furan-2-yl)methylene)-2-oxoindoline-5-carboxylic acid sodium salt], the IC50 in [1] worked out at 1400 nM.

As for `CC(=O)N1C(=O)/C(=C/c2ccc(/C=C3/C(=O)Nc4cc(C(=O)O)ccc43)o2)c2ccccc21` [compound (10), (3E)-3-((5-((E)-(1-acetyl-2-oxoindolin-3-ylidene)methyl)furan-2-yl)methylene)-2-oxoindoline-6-carboxylic acid sodium salt], in series [1], the IC50 is 580 nM.
